From patent US12448399B2, “Cereblon-based KRAS degrading PROTACs and uses related thereto” (Arvinas Operations, Inc., priority 2023, dated 2025)

Biological target: T1, KRas-G12D (Homo sapiens, UniProt P01116, G12D)
T1 construct: insert the HiBiT tag onto the N-terminus of one or more of the endogenous KRas alleles; host or cells: AsPC-1 HiBiT-KRasG12D knock-in clone (one tagged allele, two untagged KRasG12D alleles)
Test: HiBiT Degradation Assay (G12D), AsPC-1 HiBiT-KRasG12D cells, 24 hr
Type: cell-based
Conditions: ASPC1, AsPC-1 cells, maximum degradation observed
Protocol: AsPC-1 (CRL-1682) cells were purchased from ATCC and are homozygous for the G12D mutation in KRas. AsPC-1 cells were cultured in GIBCO RPMI-1640 (ThermoFisher Scientific, catalog #61870-036, with Glutamax, no HEPES, no Na Pyruvate) supplemented with 10% FBS (ThermoFisher Scientific, catalog #2060357) and 1× Penicillin-Streptomycin (ThermoFisher Scientific, catalog #15140122, 10000 U/ml, 100×). For degradation assays, 384 well plates were used. Alamar blue was purchased from ThermoFisher Scientific (A50101) and used according to manufacturer instructions. The Nano-Glo® HiBiT Lytic Detection System and Nano-Glo® HiBiT Blotting System were purchased from Promega (#N3050 and #N2410) and used according to manufacturer instructions.
To create the AsPC-1 HiBiT-KRasG12D cell line, CRISPR-Cas9 was used to insert the HiBiT tag onto the N-terminus of one or more of the endogenous KRas alleles. See Schwinn, M. K. et al. (2018) CRISPR-mediated tagging of endogenous proteins with a luminescent peptide, ACS Chem. Biol. 13(2), 467-474. After knock-in of the tag, individual clones were isolated by single cell dilution and screened for HiBiT insertion by PCR. A clone was identified that contained the desired HiBiT-KRasG12D sequence at one allele while the remaining two KRasG12D alleles were untagged. This clone was used in further studies.
AsPC-1 HiBiT-KRasG12D cells were plated at 9000 or 15,000 cells/well in a 384 well plate (Corning #3770). Compounds of the present disclosure and positive controls were diluted in the appropriate cell media and applied to the plated cells resulting in a final concentration titration of 10 μM to […] in 0.5% DMSO. Gambogic acid was used as a positive control for cytotoxicity and titrated from 10 μM to 78 nM. All assays were performed in triplicate. Cells were treated with compounds for 24 hr at 37° C. in an incubator containing 5% CO2. Following treatment, alamar blue was used to determine if any compounds led to a loss in cell viability after 24 hr. The 10× alamar blue reagent was added to a final concentration of 1× as recommended by the manufacturer and cells were returned to the incubator for 4 hr. Plates were then allowed to equilibrate to RT and fluorescence was measured using a Perkin-Elmer EnVision. After completion of the fluorescence read, the liquid from each well was removed and the cells were washed with PBS. The Nano-Glo® HiBiT detection reagent was prepared according to the manufacturer's instructions and added to each well after the PBS wash was removed. Following incubation at room temperature for 45 min, the luminescence was read using the ultra-sensitive luminescence aperture on the Envision instrument.
Fluorescence values from the alamar blue treatment were normalized to the DMSO-only control for each compound titration. HiBiT luminescence was normalized to the DMSO-only control and the fractional HiBiT signal was plotted versus the log of the PROTAC concentration and fit to a 4-parameter dose-response model to obtain the concentration of the compound that leads to half maximal degradation (DC50) as well as the maximum degradation observed (Dmax, conventionally expressed as a percentage of control).

T1 sequence (P01116 1-188 isoform P01116-2 G12D): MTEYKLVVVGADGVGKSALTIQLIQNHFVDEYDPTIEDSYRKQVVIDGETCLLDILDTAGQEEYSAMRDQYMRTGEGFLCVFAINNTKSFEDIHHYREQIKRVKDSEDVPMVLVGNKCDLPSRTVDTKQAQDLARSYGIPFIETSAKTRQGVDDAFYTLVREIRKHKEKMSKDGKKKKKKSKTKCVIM

Structure (SMILES)	Dmax [%]
CCc1cccc2cc(O)cc(-c3ncc4c(N5CC6CCC(C5)N6)nc(OCCN5CCC(CN6CC7(CCN(c8ccc9c(c8)CN(C8CCC(=O)NC8=O)C9=O)CC7)C6)CC5)nc4c3F)c12 (centres unmarked) [Compound 2]	> 70
CCc1cccc2cc(O)cc(-c3ncc4c(N5CC6CCC(C5)N6)nc(OCCN5CCN(CC6CCN(c7ccc(N8CCC(=O)NC8=O)c(F)c7)CC6)CC5)nc4c3F)c12 [Compound 14]	≤ 25
CCc1cccc2cc(O)cc(-c3ncc4c(N5CC6CCC(C5)N6)nc(OCCN5CCN(CC6CCN(c7ccc(F)c(C(=O)NC8CCC(=O)NC8=O)c7)CC6)CC5)nc4c3F)c12 (centres unmarked) [Compound 17]	≤ 25
CCc1cccc2cc(O)cc(-c3ncc4c(N5CC6CCC(C5)N6)nc(OCCN5CCC(CN6CCC(Oc7cccc8c7C(=O)N(C7CCC(=O)NC7=O)C8=O)CC6)CC5)nc4c3F)c12 (centres unmarked) [Compound 18]	≤ 25

Same assay, conditions: AsPC-1 cells

DC50 [nM]	Structure (SMILES)
100 to 5250	CCc1cccc2cc(O)cc(-c3ncc4c(N5CC6CCC(C5)N6)nc(OCCN5CCC(CN6CC7(C6)CN(c6ccc8c(c6)C(=O)N(C6CCC(=O)NC6=O)C8=O)C7)CC5)nc4c3F)c12 (centres unmarked) [Compound 1]
250 to 1000	CCc1cccc2cc(O)cc(-c3ncc4c(N5CC6CCC(C5)N6)nc(OCCN5CCC(CN6CCC7(CC6)CN(c6cccc8c6CN(C6CCC(=O)NC6=O)C8=O)C7)CC5)nc4c3F)c12 (centres unmarked) [Compound 3]
> 1000	CCc1cccc2cc(O)cc(-c3ncc4c(N5CC6CCC(C5)N6)nc(OCCN5CCN(CCN(C)[C@H]6C[C@H](Oc7ccc8c(c7)C(=O)N(C7CCC(=O)NC7=O)C8=O)C6)CC5)nc4c3F)c12 (some centres unmarked) [Compound 4]
> 1000	CCc1cccc2cc(O)cc(-c3ncc4c(N5CC6CCC(C5)N6)nc(OCCN5CCN(c6cc(N7CCN(c8ccc9c(c8)C(=O)N(C8CCC(=O)NC8=O)C9=O)CC7)ncn6)CC5)nc4c3F)c12 (centres unmarked) [Compound 5]
> 1000	CCc1cccc2cc(O)cc(-c3ncc4c(N5CC6CCC(C5)N6)nc(OCCN5CCN(CC6CCN(C(=O)c7ccc(OC)c(N8CCC(=O)NC8=O)c7)CC6)CC5)nc4c3F)c12 [Compound 6]
> 1000	CCc1cccc2cc(O)cc(-c3ncc4c(N5CC6CCC(C5)N6)nc(OCCN5CCN(c6cc(OC)c7c(c6)C(=O)N(C6CCC(=O)NC6=O)C7=O)CC5)nc4c3F)c12 (centres unmarked) [Compound 7]
250 to 1000	CCc1cccc2cc(O)cc(-c3ncc4c(N5CC6CCC(C5)N6)nc(OCCN5CCC(CN6CCC(Oc7ccc8c(c7)C(=O)N(C7CCC(=O)NC7=O)C8=O)CC6)CC5)nc4c3F)c12 (centres unmarked) [Compound 8]
250 to 1000	CCc1cccc2cc(O)cc(-c3ncc4c(N5CC6CCC(C5)N6)nc(OCCN5CCC(CN6CCN(c7cccc8c7CN(C7CCC(=O)NC7=O)C8=O)CC6)CC5)nc4c3F)c12 (centres unmarked) [Compound 9]
250 to 1000	CCc1cccc2cc(O)cc(-c3ncc4c(N5CC6CCC(C5)N6)nc(OCCN5CCC(CCCN6CCN(c7ccc8c(c7)C(=O)N(C7CCC(=O)NC7=O)C8=O)CC6)CC5)nc4c3F)c12 (centres unmarked) [Compound 10]
250 to 1000	CCc1cccc2cc(O)cc(-c3ncc4c(N5CC6CCC(C5)N6)nc(OCCN5CCC(CN(C)[C@H]6C[C@H](Oc7ccc8c(c7)C(=O)N(C7CCC(=O)NC7=O)C8=O)C6)CC5)nc4c3F)c12 (some centres unmarked) [Compound 11]
> 1000	CCc1cccc2cc(O)cc(-c3ncc4c(N5CC6CCC(C5)N6)nc(OCCN5CCC(CCC6CCN(c7ccc8c(c7)C(=O)N(C7CCC(=O)NC7=O)C8=O)CC6)CC5)nc4c3F)c12 (centres unmarked) [Compound 12]
250 to 1000	CCc1cccc2cc(O)cc(-c3ncc4c(N5CC6CCC(C5)N6)nc(OCCN5CCC(C(C)(C)N6CCN(c7ccc8c(c7)C(=O)N(C7CCC(=O)NC7=O)C8=O)CC6)CC5)nc4c3F)c12 (centres unmarked) [Compound 13]
250 to 1000	CCc1cccc2cc(O)cc(-c3ncc4c(N5CC6CCC(C5)N6)nc(OCCN5CCN(CC6CCN(c7ccc(OC)c(C(=O)NC8CCC(=O)NC8=O)c7)CC6)CC5)nc4c3F)c12 (centres unmarked) [Compound 15]
> 1000	CCc1cccc2cc(O)cc(-c3ncc4c(N5CC6CCC(C5)N6)nc(OCCN5CCC(Cn6cccc(CN7CCC(=O)NC7=O)c6=O)CC5)nc4c3F)c12 [Compound 16]
250 to 1000	CCc1cccc2cc(O)cc(-c3ncc4c(N5CC6CCC(C5)N6)nc(OCCN5CCC6(CC5)CCN(c5ccc7c(c5)C(=O)N(C5CCC(=O)NC5=O)C7=O)CC6)nc4c3F)c12 (centres unmarked) [Compound 19]
100 to 5250	CCc1cccc2cc(O)cc(-c3ncc4c(N5CC6CCC(C5)N6)nc(OCCN5CCC(CN6CCN(CC7CCN(c8ccc9c(c8)C(=O)C(C8CCC(=O)NC8=O)C9=O)CC7)CC6)CC5)nc4c3F)c12 (centres unmarked) [Compound 20]
250 to 1000	CCc1cccc2cc(O)cc(-c3ncc4c(N5CC6CCC(C5)N6)nc(OCCN5CCOC(CN6CCN(CC7CCN(c8ccc9c(c8)C(=O)N(C8CCC(=O)NC8=O)C9=O)CC7)CC6)C5)nc4c3F)c12 (centres unmarked) [Compound 21]
100 to 5250	CCc1cccc2cc(O)cc(-c3ncc4c(N5CC6CCC(C5)N6)nc(OCCN5CCC(CN6CCC7(CC6)CCN(c6ccc8c(c6)C(=O)N(C6CCC(=O)NC6=O)C8=O)CC7)CC5)nc4c3F)c12 (centres unmarked) [Compound 22]
250 to 1000	CCc1cccc2cc(O)cc(-c3ncc4c(N5CC6CCC(C5)N6)nc(OCCN5CCC(O[C@H]6CC[C@H](OC7CCN(c8cccc9c8CN(C8CCC(=O)NC8=O)C9=O)CC7)CC6)CC5)nc4c3F)c12 (some centres unmarked) [Compound 23]
100 to 5250	CCc1cccc2cc(O)cc(-c3ncc4c(N5CC6CCC(C5)N6)nc(OCCN5CCC(O[C@H]6C[C@H](OC7CCN(c8cccc9c8CN(C8CCC(=O)NC8=O)C9=O)CC7)C6)CC5)nc4c3F)c12 (some centres unmarked) [Compound 24]
< 5100	CCc1cccc2cc(O)cc(-c3ncc4c(N5CC6CCC(C5)N6)nc(OCCN5CCC6(CC5)CCN(CC5CCN(c7ccc8c(c7)C(=O)N(C7CCC(=O)NC7=O)C8=O)CC5)CC6)nc4c3F)c12 (centres unmarked) [Compound 25]
250 to 1000	CCc1cccc2cc(O)cc(-c3ncc4c(N5CC6CCC(C5)N6)nc(OCCN5CCC(COCC6CCN(c7ccc8c(c7)C(=O)N(C7CCC(=O)NC7=O)C8=O)CC6)CC5)nc4c3F)c12 (centres unmarked) [Compound 26]
250 to 1000	CCc1cccc2cc(O)cc(-c3ncc4c(N5CC6CCC(C5)N6)nc(OCCN5CCC(C6CCN(c7ccc8c(c7)C(=O)N(C7CCC(=O)NC7=O)C8=O)CC6)CC5)nc4c3F)c12 (centres unmarked) [Compound 27]
250 to 1000	CCc1cccc2cc(O)cc(-c3ncc4c(N5CC6CCC(C5)N6)nc(OCCN5CCC(CC6CCN(c7cccc8c7n(C)c(=O)n8C7CCC(=O)NC7=O)CC6)CC5)nc4c3F)c12 (centres unmarked) [Compound 28, 3-[4-[4-[[1-[2-[4-(3,8-diazabicyclo[3.2.1]octan-3-yl)-7-(8-ethyl-3-hydroxy-1-naphthyl)-8-fluoro-pyrido[4,3-d]pyrimidin-2-yl]oxyethyl]-4-piperidyl]methyl]-1-piperidyl]-3-methyl-2-oxo-benzimidazol-1-yl]piperidine-2,6-dione]
250 to 1000	CCc1cccc2cc(O)cc(-c3ncc4c(N5CC6CCC(C5)N6)nc(OCCN5CCC(F)(CC6CCN(c7cccc8c7CN(C7CCC(=O)NC7=O)C8=O)CC6)CC5)nc4c3F)c12 (centres unmarked) [Compound 29]
> 1000	CCc1cccc2cc(O)cc(-c3nc(N4CC5CCC(C4)N5)c4cnc(OCCN5CCC(CC6CCN(c7cccc8c7CN(C7(C)CCC(=O)NC7=O)C8=O)CC6)CC5)nc4c3F)c12 (centres unmarked) [Compound 30]
100 to 5250	CCc1cccc2cc(O)cc(-c3ncc4c(N5CC6CCC(C5)N6)nc(OCCN5CCC(CCN6CCN(c7ccc8c(c7)C(=O)N(C7CCC(=O)NC7=O)C8=O)CC6)CC5)nc4c3F)c12 (centres unmarked) [Compound 31]
250 to 1000	CCc1cccc2cc(O)cc(-c3ncc4c(N5CC6CCC(C5)N6)nc(OCCN5CCC(CN6CCN(c7ccc8c(c7)C(=O)N(C7CCC(=O)NC7=O)C8=O)CC6)CC5)nc4c3F)c12 (centres unmarked) [Compound 32]
250 to 1000	CCc1cccc2cc(O)cc(-c3ncc4c(N5CC6CCC(C5)N6)nc(OCCN5CCN([C@H]6CC[C@H](Nc7ccc8c(c7)C(=O)N(C7CCC(=O)NC7=O)C8=O)CC6)CC5)nc4c3F)c12 (some centres unmarked) [Compound 33]
250 to 1000	CCc1cccc2cc(O)cc(-c3ncc4c(N5CC6CCC(C5)N6)nc(OCCN5CCC(c6ccc7c(c6)C(=O)N(C6CCC(=O)NC6=O)C7=O)CC5)nc4c3F)c12 (centres unmarked) [Compound 34]

Structure (SMILES)	DC50 [nM]
CCc1cccc2cc(O)cc(-c3ncc4c(N5CC6CCC(C5)N6)nc(OCCN5CCC(CN6CC7(CCN(c8ccc9c(c8)CN(C8CCC(=O)NC8=O)C9=O)CC7)C6)CC5)nc4c3F)c12 (centres unmarked) [Compound 2]	< 5100
CCc1cccc2cc(O)cc(-c3ncc4c(N5CC6CCC(C5)N6)nc(OCCN5CCN(CC6CCN(c7ccc(N8CCC(=O)NC8=O)c(F)c7)CC6)CC5)nc4c3F)c12 [Compound 14]	250 to 1000
CCc1cccc2cc(O)cc(-c3ncc4c(N5CC6CCC(C5)N6)nc(OCCN5CCN(CC6CCN(c7ccc(F)c(C(=O)NC8CCC(=O)NC8=O)c7)CC6)CC5)nc4c3F)c12 (centres unmarked) [Compound 17]	250 to 1000
CCc1cccc2cc(O)cc(-c3ncc4c(N5CC6CCC(C5)N6)nc(OCCN5CCC(CN6CCC(Oc7cccc8c7C(=O)N(C7CCC(=O)NC7=O)C8=O)CC6)CC5)nc4c3F)c12 (centres unmarked) [Compound 18]	> 1000
